Series [1] addresses AChE from Electrophorus electricus (electric eel) (Electrophorus electricus, UniProt O42275). The series can be described thus: In vitro AChE inhibition assay. Type of series: biochemical.
Series [2] has as its target BChE from equine serum (Equus caballus, UniProt P81908). The series can be described thus: biochemical. The note with it: for IC50 values (mean ± SD) BChE: BChE from equine serum. The class given is biochemical.
Series [3] has as its target GluN2B containing NMDAR (GluN1/GluN2B) in HEK-293 cells (Homo sapiens, UniProt Q05586+Q13224). The series can be described thus: Cell-based NMDAR activity assay. The note with it: for category of NMDAR inhibitor: based on NMDAR IC50; for antagonism of NMDAR activity, in words: initial screening studies; for inhibition at 100 µM / inhibition at 50 µM: HEK293, read-out: inhibition of NMDAR activity; for number of punctate cells: 5 μM, with NMDAR agonists and Ca2+ (Fig. 2B).

For series [4], the system named is HepG2 cells. In words: MTT cytotoxicity assay on HepG2 cells. The note with it: 10-300 μM, 24 h.
Series [5] relates to rat primary cortical neurons. In words: Glutamate-induced excitotoxicity, MAP2 immunostaining and DAPI staining. Type of series: cell-based. The note with it: DIV9 neurons, 100 µM glutamate and 10 µM glycine.
Series [6] relates to rat liver. In words: In vivo hepatotoxicity assessment by liver histopathology. The note with it: IP, 15 days.
Series [7] deals with rat primary cortical neurons. The series can be described thus: Glutamate-induced excitotoxicity, MTT assay. The class given is cell-based. The note with it: DIV9 neurons, glutamate 3 h, MTT after 24 h; pre-treatment with compounds.
The test system of series [8] is AChE. The note with it: read-out: IC50 (AChEI); cited from earlier work.

The structures appear in SMILES notation.

Chain of GluN2B containing NMDAR (GluN1/GluN2B) in HEK-293 cells (Q13224 27-1484, species assumed, other chains not shown): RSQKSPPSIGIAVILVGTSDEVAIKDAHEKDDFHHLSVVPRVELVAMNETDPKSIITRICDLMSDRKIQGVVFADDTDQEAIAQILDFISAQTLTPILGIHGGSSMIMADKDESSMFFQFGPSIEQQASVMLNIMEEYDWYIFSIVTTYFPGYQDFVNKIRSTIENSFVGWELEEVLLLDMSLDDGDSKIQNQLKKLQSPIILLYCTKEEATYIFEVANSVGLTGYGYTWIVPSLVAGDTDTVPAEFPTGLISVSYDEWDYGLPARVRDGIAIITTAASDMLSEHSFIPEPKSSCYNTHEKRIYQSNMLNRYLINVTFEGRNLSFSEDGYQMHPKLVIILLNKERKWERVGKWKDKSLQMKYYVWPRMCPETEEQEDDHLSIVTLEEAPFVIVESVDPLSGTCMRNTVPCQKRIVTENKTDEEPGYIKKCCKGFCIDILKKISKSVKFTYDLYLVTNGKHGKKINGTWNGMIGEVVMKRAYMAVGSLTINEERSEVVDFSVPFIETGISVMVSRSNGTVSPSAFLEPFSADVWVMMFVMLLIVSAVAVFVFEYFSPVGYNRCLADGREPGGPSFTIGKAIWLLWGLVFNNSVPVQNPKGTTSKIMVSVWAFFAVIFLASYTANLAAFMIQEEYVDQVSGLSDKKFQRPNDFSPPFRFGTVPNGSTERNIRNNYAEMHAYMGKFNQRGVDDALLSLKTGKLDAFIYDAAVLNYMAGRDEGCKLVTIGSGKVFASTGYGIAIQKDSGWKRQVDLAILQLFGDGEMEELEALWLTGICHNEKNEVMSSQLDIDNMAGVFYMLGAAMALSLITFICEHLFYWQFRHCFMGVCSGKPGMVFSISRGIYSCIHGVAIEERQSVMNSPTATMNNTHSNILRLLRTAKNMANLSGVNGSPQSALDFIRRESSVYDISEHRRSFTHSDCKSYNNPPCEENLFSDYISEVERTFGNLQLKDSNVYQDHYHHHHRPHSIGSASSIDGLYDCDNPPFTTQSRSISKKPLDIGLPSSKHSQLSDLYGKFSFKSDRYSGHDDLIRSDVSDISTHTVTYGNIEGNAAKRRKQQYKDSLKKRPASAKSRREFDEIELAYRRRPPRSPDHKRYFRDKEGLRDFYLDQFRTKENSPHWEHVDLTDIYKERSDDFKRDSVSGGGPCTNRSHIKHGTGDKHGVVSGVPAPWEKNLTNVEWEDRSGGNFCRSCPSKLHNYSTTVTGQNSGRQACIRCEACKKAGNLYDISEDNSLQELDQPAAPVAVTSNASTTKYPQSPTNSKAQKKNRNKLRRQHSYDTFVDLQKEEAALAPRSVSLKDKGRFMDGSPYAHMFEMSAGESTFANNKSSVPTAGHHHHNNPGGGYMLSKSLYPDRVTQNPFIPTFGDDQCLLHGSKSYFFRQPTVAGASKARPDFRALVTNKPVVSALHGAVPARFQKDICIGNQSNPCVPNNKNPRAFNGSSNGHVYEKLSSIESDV
Chain of AChE from Electrophorus electricus (electric eel) (O42275 24-633): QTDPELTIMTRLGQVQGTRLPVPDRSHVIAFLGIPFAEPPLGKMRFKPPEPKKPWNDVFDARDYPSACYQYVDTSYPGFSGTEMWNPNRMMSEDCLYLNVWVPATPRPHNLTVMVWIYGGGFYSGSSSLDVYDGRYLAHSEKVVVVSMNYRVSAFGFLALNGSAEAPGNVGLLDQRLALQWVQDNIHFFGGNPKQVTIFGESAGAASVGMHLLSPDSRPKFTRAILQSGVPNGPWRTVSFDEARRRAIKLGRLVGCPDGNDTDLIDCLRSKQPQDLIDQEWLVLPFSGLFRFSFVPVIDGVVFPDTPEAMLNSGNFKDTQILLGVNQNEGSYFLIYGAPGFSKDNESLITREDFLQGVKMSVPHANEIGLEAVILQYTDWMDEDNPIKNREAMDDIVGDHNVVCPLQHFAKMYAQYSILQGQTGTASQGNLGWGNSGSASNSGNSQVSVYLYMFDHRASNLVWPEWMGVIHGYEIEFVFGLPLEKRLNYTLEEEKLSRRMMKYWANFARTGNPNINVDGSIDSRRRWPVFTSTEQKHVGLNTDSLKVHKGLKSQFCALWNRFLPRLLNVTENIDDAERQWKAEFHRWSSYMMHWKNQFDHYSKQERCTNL
Chain of BChE from equine serum (P81908 whole entry): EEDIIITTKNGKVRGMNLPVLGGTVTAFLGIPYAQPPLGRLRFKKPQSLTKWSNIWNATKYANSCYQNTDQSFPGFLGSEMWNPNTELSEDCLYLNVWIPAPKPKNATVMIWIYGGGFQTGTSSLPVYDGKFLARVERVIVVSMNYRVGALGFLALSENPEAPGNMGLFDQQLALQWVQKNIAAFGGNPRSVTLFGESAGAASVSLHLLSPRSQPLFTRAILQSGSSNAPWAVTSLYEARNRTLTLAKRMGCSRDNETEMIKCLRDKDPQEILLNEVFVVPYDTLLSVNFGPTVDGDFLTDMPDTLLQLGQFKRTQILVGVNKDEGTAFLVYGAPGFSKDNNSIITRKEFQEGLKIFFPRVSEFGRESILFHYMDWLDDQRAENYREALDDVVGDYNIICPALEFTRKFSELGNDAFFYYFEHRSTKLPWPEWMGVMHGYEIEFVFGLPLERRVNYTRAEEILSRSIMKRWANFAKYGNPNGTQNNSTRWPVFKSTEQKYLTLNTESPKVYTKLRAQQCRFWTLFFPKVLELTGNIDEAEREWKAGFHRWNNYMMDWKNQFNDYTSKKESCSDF

Turning to `CCOC(=O)C1CCc2nc3cc(Br)ccc3c(N)c2C1` (stereo not drawn) [Compound 5, Ethyl 9-amino-6-bromo-1,2,3,4-tetrahydroacridine-2-carboxylate], the results for the half-maximal inhibitory concentration (IC50) in series [1] and in series [2] were 100 ± 7.2 nM and 7380 ± 210 nM, respectively.
On to `NNC(=O)C1CCc2nc3cc(Br)ccc3c(N)c2C1` (stereo not drawn) [Compound 8, 9-Amino-6-bromo-1,2,3,4-tetrahydroacridine-2-carbohydrazide], for which the 50% inhibitory concentration (IC50) in series [1] came to 138 ± 16.1 nM; in series [2], 20400 ± 2110 nM.
Turning to `CCOC(=O)C1CCc2nc3cc(-c4cnn(C)c4)ccc3c(N)c2C1` (stereo not drawn) [Compound 10, Ethyl-9-amino-6-(1-methyl-1H-pyrazol-4-yl)-1,2,3,4-tetrahydroacridine-2-carboxylate], the values for the IC50 in series [1], in series [2] and in series [3] were 107 ± 8.7 nM, 4390 ± 280 nM and 31100 ± 4800 nM, respectively.
`CNC(=O)C1CCc2nc3cc(-c4cnn(C)c4)ccc3c(N)c2C1` (stereo not drawn) [Compound 14, 9-amino-N-methyl-6-(1-methyl-1H-pyrazol-4-yl)-1,2,3,4-tetrahydroacridine-2-carboxamide] registered an IC50 in series [1] of 132 ± 7.7 nM. In series [4], the “cytotoxicity on HepG2 cells, in words” value is reported as “non-toxic”. Further, in series [5], the “condensed nuclei / viable cells (DAPI staining) after glutamate” value (“condensed nuclei / viable cells” below) was “clear decrease in the number of condensed nuclei”; the “decrease in MAP2 positive cells and loss of neuronal architecture caused by glutamate” value (“decrease in MAP2 positive cells and loss” for short) is “prevented”. Moreover, the half-maximal inhibitory concentration (IC50) in series [2] was found to be 16400 ± 540 nM. Besides, in series [3], the IC50 is 33900 ± 8410 nM and the “category of NMDAR inhibitor” value was “reduced”.
For `CCOC(=O)C1CCc2nc3ccccc3c(N)c2C1` (stereo not drawn) [Compound 16, ethyl 9-amino-1,2,3,4-tetrahydroacridine-2-carboxylate], the results for the IC50 in series [1] and in series [2] were 42.2 ± 2.7 nM and 3820 ± 250 nM, respectively. The “antagonism of NMDAR activity, in words” value in series [3] was “could not effectively block NMDAR activity”.
Regarding `NNC(=O)C1CCc2nc3ccccc3c(N)c2C1` (stereo not drawn) [Compound 17, 9-amino-1,2,3,4-tetrahydroacridine-2-carbohydrazide], half-maximal inhibition in series [1] (IC50) was put at 19.3 ± 0.47 nM. Besides, the “antagonism of NMDAR activity, in words” value in series [3] is on record as “could not effectively block NMDAR activity”.
Regarding `CCOC(=O)C1CCc2nc3cc(-c4ccc(F)cc4)ccc3c(N)c2C1` (stereo not drawn) [Compound 107, ethyl 9-amino-6-(4-fluorophenyl)-1,2,3,4-tetrahydroacridine-2-carboxylate], the half-inhibitory concentration (IC50) came out at 135 ± 10.3 nM in series [1], 1350 ± 90 nM in series [2] and 15800 ± 3440 nM in series [3].
In the case of `Nc1c2c(nc3cc(-c4cncnc4)ccc13)CCCC2` [Compound 203, 6-(pyrimidin-5-yl)-1,2,3,4-tetrahydroacridin-9-amine], the IC50 in series [1] turned out to be 18.5 ± 2.09 nM; in series [2] it was 1500 ± 200 nM; in series [3], 28100 ± 5100 nM. For the same compound, the “cytotoxicity on HepG2 cells, in words” value in series [4] is “slight toxicity”. The “antagonism of NMDAR activity, in words” value in series [3] is “effective in antagonizing NMDAR activity”.
Compound `Nc1c2c(nc3cc(-c4cc[nH]n4)ccc13)CCCC2` [Compound 204, 6-(1H-pyrazol-3-yl)-1,2,3,4-tetrahydroacridin-9-amine] had an IC50 in series [1] of 137 ± 7.35 nM. For the same compound, in series [4], the “cytotoxicity on HepG2 cells, in words” value is given as “non-toxic”. Further, in series [2], the half-maximal inhibitory concentration (IC50) worked out at 960 ± 70 nM and the “IC50 values (mean ± SD) BChE” value is recorded as “submicromolar”. In addition, in series [3], the half-inhibitory concentration (IC50) was 14600 ± 4320 nM; the inhibition at 100 µM was around 100%; the “antagonism of NMDAR activity, in words” value is “effective in antagonizing NMDAR activity”.
The compound `N#Cc1ccc(-c2ccc3c(N)c4c(nc3c2)CCCC4)cc1` [Compound 205, 4-(9-amino-5,6,7,8-tetrahydroacridin-3-yl)benzonitrile] showed a concentration for half-maximal inhibition (IC50) in series [1] of 84.2 ± 1.8 nM. The “cytotoxicity on HepG2 cells, in words” value in series [4] is listed as “slight toxicity”. In series [2], the IC50 was found to be 700 ± 80 nM and the “IC50 values (mean ± SD) BChE” value is on record as “submicromolar”. In series [3], the IC50 was found to be 2840 ± 460 nM; the inhibition at 100 µM was around 100%; the “antagonism of NMDAR activity, in words” value is “effective in antagonizing NMDAR activity”.
`Nc1c2c(nc3cc(-c4ccc(OC(F)(F)F)cc4)ccc13)CCCC2` [Compound 206, 6-(4-(trifluoromethoxy)phenyl)-1,2,3,4-tetrahydroacridin-9-amine]: the IC50 in series [1] worked out at 184 ± 19.2 nM; in series [2] it was 1210 ± 160 nM; in series [3] it was 9190 ± 2680 nM. For the same compound, the inhibition at 100 µM in series [3] was around 100%. Also, the “antagonism of NMDAR activity, in words” value in series [3] is recorded as “effective in antagonizing NMDAR activity”.
In series [1], `Nc1c2c(nc3cc(-c4ccccc4F)ccc13)CCCC2` [Compound 208, 6-(2-fluorophenyl)-1,2,3,4-tetrahydroacridin-9-amine] gave an IC50 of 75.1 ± 9.46 nM. Further, the “selectivity between AChE and BChE, in words” value in series [1] (AChE from electric eel vs BChE from equine serum) was “comparable inhibitory potency towards both AChE and BChE”. Also, in series [6], the “animals showing mild periportal inflammation or congestion” value is recorded as 5 out of 6 animals. Further, the “liver histopathology (H&E), in words” value in series [6] (201 3 mg/Kg, 208 1 mg/Kg, tacrine 5 mg/Kg) is on record as “mild periportal inflammation or mild congestion”. Also, the “reduction in neuronal viability by glutamate (MTT assay)” value in series [7] was “averted”. In series [5], the “condensed nuclei / viable cells” value was “clear decrease in the number of condensed nuclei”; the “decrease in MAP2 positive cells and loss” value is on record as “prevented”. Also, in series [2], the IC50 was determined as 130 ± 20 nM and the “IC50 values (mean ± SD) BChE” value is on record as “submicromolar”. In series [3], the IC50 amounted to 310 ± 90 nM, the “fold higher NMDAR inhibitory potency compared to reported value for tacrine” value is reported as around 600 fold, the “number of punctate cells” value was “Reduction in the number of punctate cells” and the inhibition at 50 µM is around 100%. In addition, in series [3], the inhibition at 100 µM was around 100%; the “category of NMDAR inhibitor” value is “potent (potent (IC50 < 5 μM))”; the “antagonism of NMDAR activity, in words” value is recorded as “effective in antagonizing NMDAR activity”.
The compound `Nc1c2c(nc3cc(-c4ccc(F)cc4)ccc13)CCCC2` [Compound 209, 6-(4-fluorophenyl)-1,2,3,4-tetrahydroacridin-9-amine] registered an IC50 in series [1] of 76 ± 3.79 nM. Also, in series [4], the “cytotoxicity on HepG2 cells, in words” value is on record as “non-toxic”. The 50% inhibitory concentration (IC50) in series [2] worked out at 1030 ± 170 nM. Also, in series [3], the IC50 came out at 3360 ± 860 nM, the “fold increase in NMDAR potency compared to 107” value is reported as “About 4 fold”, the inhibition at 50 µM was around 100% and the inhibition at 100 µM is around 100%. Besides, the “antagonism of NMDAR activity, in words” value in series [3] is “effective in antagonizing NMDAR activity”.
The compound `CSc1ccc(-c2ccc3c(N)c4c(nc3c2)CCCC4)cc1` [Compound 210, 6-(4-(methylthio)phenyl)-1,2,3,4-tetrahydroacridin-9-amine] returned a concentration for half-maximal inhibition (IC50) in series [1] of 149 ± 16.8 nM. Moreover, the “reduction in neuronal viability by glutamate (MTT assay)” value in series [7] is listed as “averted”. In addition, in series [5], the “condensed nuclei / viable cells” value is listed as “clear decrease in the number of condensed nuclei”; the “decrease in MAP2 positive cells and loss” value was “prevented”. Moreover, in series [2], inhibition was half-maximal at 940 ± 120 nM (IC50) and the “IC50 values (mean ± SD) BChE” value is recorded as “submicromolar”. For the same compound, in series [3], inhibition was half-maximal at 270 ± 50 nM (IC50), the “fold higher NMDAR inhibitory potency compared to reported value for tacrine” value is listed as around 600 fold, the inhibition at 50 µM is around 100% and the inhibition at 100 µM was around 100%. For the same compound, in series [3], the “category of NMDAR inhibitor” value was “potent (potent (IC50 < 5 μM))” and the “antagonism of NMDAR activity, in words” value is “effective in antagonizing NMDAR activity”.
In turn, `Nc1c2c(nc3cc(-c4ccc(C(F)(F)F)cc4)ccc13)CCCC2` [Compound 211, 6-(4-(trifluoromethyl)phenyl)-1,2,3,4-tetrahydroacridin-9-amine] showed a half-inhibitory concentration (IC50) in series [1] of 74.6 ± 8.29 nM. Also, in series [4], the “cytotoxicity on HepG2 cells, in words” value is “slight toxicity”. In addition, in series [5], the “condensed nuclei / viable cells” value is “clear decrease in the number of condensed nuclei”; the “decrease in MAP2 positive cells and loss” value is on record as “prevented”. In addition, in series [2], the concentration for half-maximal inhibition (IC50) was found to be 3970 ± 710 nM. Also, in series [3], the midpoint of inhibition, the IC50, lay at 490 ± 140 nM; the “number of punctate cells” value is recorded as “Reduction in the number of punctate cells”; the inhibition at 50 µM was around 100%; the inhibition at 100 µM is around 100%. Also, in series [3], the “category of NMDAR inhibitor” value was “potent (potent (IC50 < 5 μM))” and the “antagonism of NMDAR activity, in words” value is given as “effective in antagonizing NMDAR activity”.
The compound `Nc1c2c(nc3cc(-c4ccoc4)ccc13)CCCC2` [Compound 212, 6-(furan-3-yl)-1,2,3,4-tetrahydroacridin-9-amine] came in with a 50% inhibitory concentration (IC50) in series [1] of 53.6 ± 4.39 nM. Moreover, in series [4], the “cytotoxicity on HepG2 cells, in words” value was “non-toxic”. In addition, in series [2], the 50% inhibitory concentration (IC50) was 990 ± 50 nM and the “IC50 values (mean ± SD) BChE” value is “submicromolar”. In series [3], 16400 ± 2760 nM corresponded to half-maximal inhibition (IC50) and the “antagonism of NMDAR activity, in words” value is “effective in antagonizing NMDAR activity”.
As to `Nc1c2c(nc3cc(-c4cccnc4)ccc13)CCCC2` [Compound 214, 6-(pyridin-3-yl)-1,2,3,4-tetrahydroacridin-9-amine], the concentration for half-maximal inhibition (IC50) in series [1] came to 49.4 ± 2.37 nM; in series [2], 820 ± 90 nM; in series [3], 38800 ± 9640 nM. The “cytotoxicity on HepG2 cells, in words” value in series [4] is on record as “non-toxic”. In series [2], the “IC50 values (mean ± SD) BChE” value is “submicromolar”. Besides, the “antagonism of NMDAR activity, in words” value in series [3] is on record as “effective in antagonizing NMDAR activity”.
Turning to `C[C@]12N[C@H](Cc3ccccc31)c1ccccc12` [MK-801, reference compound], in series [5], the “condensed nuclei / viable cells” value was “prevented”.
`COc1ccc2c3c1O[C@H]1C[C@@H](O)C=C[C@@]31CCN(C)C2` [galantamine]: the 50% inhibitory concentration (IC50) in series [8] is […].
`CCN(C)C(=O)Oc1cccc([C@H](C)N(C)C)c1` [rivastigmine]: the IC50 in series [8] was […].

(Values after PMC8379669 (Computational and Structural Biotechnology Journal, 2021).)
